Earlier results in patent publication US8367112B2, “Nanoparticulate carverdilol formulations” (Alkermes Pharma Ireland Limited, priority 2006, dated 2013).
Like-named read-outs stand apart in the source and are kept apart here.

Assays:
[1] = in vivo, po

apparent mean terminal elimination half-life [1]	plasma levels relative to S(−)-carvedilol [1]	solubility (95% ethanol)	solubility (dimethylsulfoxide)	solubility (ethyl ether)	solubility (gastric fluid (simulated, TS, pH 1.1))	solubility (intestinal fluid (simulated, TS without pancreatin, pH 7.5))	solubility (isopropanol)	solubility (methanol)	solubility (methylene chloride)	solubility (water)	SMILES
5 to 9 h	2-3 times higher										COc1ccccc1OCCNC[C@@H](O)COc1cccc2[nH]c3ccccc3c12 [R(+)-carvedilol]
7 to 11 h											COc1ccccc1OCCNC[C@H](O)COc1cccc2[nH]c3ccccc3c12 (single isomer, unassigned) [S(−)-enantiomer, S(−)-carvedilol]
		sparingly soluble	freely soluble	slightly soluble	practically insoluble	practically insoluble	sparingly soluble	soluble	soluble	practically insoluble	COc1ccccc1OCCNCC(O)COc1cccc2[nH]c3ccccc3c12 (racemic) [carvedilol, (±)-1-(Carbazol-4-yloxy)-3-[[2-(o-methoxyphenoxy)ethyl]amino]-2-propanol]
